Source: patent publication US20250136629A1, “SELF-ASSEMBLED NANOPARTICLES FOR PHOTOTHERMAL THERAPY” (The University of Hong Kong, priority 2023, published 2025)

Assay: Air stability of the complexes (observation)
Assay type: physicochemical

[Fe(II)-ppy-tpy-Cl] [Complex R]
air stability: slightly air-sensitive in both the solid and solution states
